Experiment [1] relates to TTA69. Kind of experiment: CD melting, DNA stabilization. The format is binding, human. As to conditions: 5 µM DNA, 20 µM BMPQ-1, 10 mM Tris-HCl, 50 mM KCl, pH 7.4.
Method: CD studies were performed on a Chirascan circular dichroism spectrophotometer (Jasco, Easton, MD, USA). A quartz cuvette with a 1 mm path length was used to record the spectra over a wavelength range of 220–320 nm with a 1 nm bandwidth. All the samples were prepared in buffer containing 10 mM Tris–HCl pH 7.4, 100 mM KCl. To ensure the concentrations of G-quadruplex units to be 20 μM, multiple G-quadruplexes forming oligonucleotides with different concentrations were used (TTA (G1) 20 μM, TTA45 (G2) 10 μM, TTA69 (G3) 6.67 μM, TTA93 (G4) 5 μM, TTA117 (G5) 4 μM, TTA141 (G6) 3.33 μM). The DNA samples were heated at 95°C for 5 min and cooled down slowly to room temperature. 20, 40 and 60 μM BMPQ-1 were mixed with DNAs separately. Melting curves were measured at 295 nm and the range of temperature was 4–95°C.
In experiment [2] the test system is c-KIT2 (DNA, G4) GGGCGGGCGCGAGGGAGGGG
Kind of experiment: ligand fluorescence enhancement. To be noted: 100 mM K+ (KCl) plus potassium phosphate; 10 mM K2HPO4/KH2PO4 pH 7.0; 3 µM compound, 4 µM DNA; enhancement below 3-fold.

Experiment [3] has as its system Duplex. Kind of experiment: CD melting, DNA stabilization. To be noted: 5 µM DNA (19AT), 20 µM BMPQ-1, 10 mM Tris-HCl, 50 mM KCl, pH 7.4. Format: binding. The method, then:
Figure S2. Normalized CD thermal melting curves of DNAs in the absence or presence of BMPQ-1 under K+ conditions. (A) TTA69, (B) TTA45, (C) TTA, (D) c-KIT1, (E) TBA, (F) duplex DNA 19AT. The DNA concentration was 5 µM, and BMPQ-1 was 10 µM or 20 µM. All measurements were carried out in the buffer with 10 mM Tris-HCl (pH 7.4), 50 mM KCl. […]

Experiment [4] has as its system TTA45. Kind of experiment: FRET melting assay, stabilization of TTA45. The format is binding, human. To be noted: 0.5 µM TTA45, 10 mM K2HPO4/KH2PO4, 100 mM KCl, pH 7.0. How it is done: Based on the conventional G-quadruplex ligand design ([46]), ∼400 compounds were selected from Chinese National Compound library of Peking University (PKU-CNCL). These compounds were evaluated for their ability to bind to TTA45 by Fluorescence Resonance Energy Transfer (FRET) assay (Supplementary Tables S1 and S2) ([47]). […] Compounds 21-38 were purchased to study their binding with TTA45 by FRET (Supplementary Table S3). […] page 4: Table S2. Stabilization of TTA45 as determined by FRET assays (continued). Compounds Structures ΔTm/°C Compounds Structures ΔTm/°C 23 10.3 25 14.6 […] OH 24 […] KCl, pH 7.0) was determined by FRET procedure, and Tm/°C were derived by their difference. The concentration of compounds 21-26 were 20 μM , and other compounds were 50 μM. FRET assay was carried out on the Real-Time PCR 3.2 machine (Analytik Jena, Germany). The total reaction volume was 20 μL with 0.5 μM of oligonucleotide labelled with FAM at the 3' end and TAMRA at 5' end in 10 mM K2HPO4/KH2PO4 (pH 7.0) containing 100 mM KCl. […] Then compounds with various concentrations were added into the DNA samples.

For experiment [5], the system named is monomeric G-quadruplexes (TBA, c-KIT1, c-KIT2, c-MYC Pu22, VEGF, TTA), duplex (19AT), single strand (dT30). Kind of experiment: Fluorescence response of BMPQ-1 to DNA. Format: binding. To be noted: 3 μM BMPQ-1, 4 μM other DNAs, λex = 395 nm. How it is done:
Figure 1. (A) Structure of BMPQ-1. (B) Fluorescence spectra of BMPQ-1 at λex = 395 nm in the absence or presence of dimeric G-quadruplexes (TTA45), monomeric G-quadruplexes (c-KIT1, c-KIT2, c-MYCPu22, TTA, VEGF, TBA), trinucleotide DNA (CGG12), duplex DNA (19AT) and single-stranded DNA (dT30). The concentration of BMPQ-1 was 3 μM. The concentration of TTA45 was 2 μM and DNAs with other structures were 4 μM. (C) Fluorescence spectra of 6 μM BMPQ-1 at λex = 395 nm in the absence or presence of 2 μM telomeric G-quadruplexes. Oligonucleotide samples were prepared in solution with 10 mM K2HPO4/KH2PO4, pH 7.0, 100 mM KCl. (D) Effect of BMPQ-1 on the CD spectra of 10 μM TTA45 in 10 mM Tris-HCl buffer (pH 7.4) containing 100 mM KCl.
G-quadruplex forming oligonucleotides were annealed in the buffer (10 mM K2HPO4/KH2PO4 pH 7.0, 100 mM KCl) by heating to 95°C for 5 min, followed by gradual cooling to room temperature. Fluorescence spectra were detected by RF-5301PC spectrofluorophotometer (Shimadzu, Japan) at room temperature. The spectra were recorded with 5 nm excitation and emission slit widths. […] For the fluorescence measurements between BMPQ-1 and different DNA sequences, the final concentrations of multimeric G-quadruplex forming oligonucleotides were 2 μM and other DNA oligonucleotides were 4 μM.

Experiment [6] has as its system tumor cell. Kind of experiment: Tumor cell proliferation (summary statement). The format is cell-based. As to conditions: summary value, abstract/introduction. The method, then: (§1) The cell growth effect of BMPQ-1 against different cell lines were tested via measuring the quantity of living cells using the Cell Counting Kit-8 (CCK8) (DOJINDO, Japan) according to the instruction. Cells were seeded in a 96-well plate (5 × 10^3 cells/well) and grown for 24 h for attachment. Then the cells were treated with various concentrations of BMPQ-1 and incubated at 37°C with 5% CO2 for 48 h. After incubation, the old medium was discarded followed by adding fresh medium containing 10% FBS in DMEM. Then 100 μl CCK-8 (10% in grow medium) was added into each well, and the cells were further incubated for 1 h. The optical density (OD) was detected at 450 nm by an automated microplate reader (Bio-Rad). The IC50 values were derived from the curves of the mean percentage of survival against the drug concentration. All the experiments were performed in triplicate.

Experiment [7] concerns A549. Kind of experiment: Cell cytotoxicity assay (CCK8). The format is cell-based, human. As to conditions: Homo sapiens, A549; CCK8, 48 h treatment. The method, then: as §1
(§2) A Cell Counting Kit-8 (CCK8) (DOJINDO, Japan) was employed to evaluate the cytotoxicity of BMPQ-1 on human alveolar basal epithelial cancer cell line (A549), human hepatocellular carcinoma cancer cell line (HepG2), human gastric cancer cell line (MGC-803), human colon adenocarcinoma (HT29), human normal liver Cells (HL-7702).

In experiment [8] the test system is HT29. Kind of experiment: Cell cytotoxicity assay (CCK8). Format: cell-based, human. As to conditions: Homo sapiens, HT-29; CCK8, 48 h treatment. How it is done: as §1, §2
Experiment [9] concerns MGC-803. Kind of experiment: Cell cytotoxicity assay (CCK8). Format: cell-based, human. To be noted: Homo sapiens, MGC-803; CCK8, 48 h treatment. How it is done: as §1, §2
Experiment [10] relates to HepG2. Kind of experiment: Cell cytotoxicity assay (CCK8). Format: cell-based, human. As to conditions: Homo sapiens, HepG2; CCK8, 48 h treatment. The method, then:
as §1, §2

Experiment [11] deals with c-KIT1 (DNA, G4) AGGGAGGGCGCTGGGAGGAGGG
Kind of experiment: CD melting. As to conditions: 50 mM K+; 10 mM Tris-HCl pH 7.4; 5 µM DNA, 20 µM compound.

A word on the IC50: it is the concentration needed to halve the response being measured. A word on the ΔTm: it is the shift of the melting midpoint relative to a reference.

Structures are written as SMILES.

`Cc1ccc(Cn2cc3c(-c4ccc5c(c4)OCO5)nnc-3c3cc4c(cc32)OCO4)cc1` [BMPQ-1]: the “ΔTm (°C) TTA69” value in experiment [1] was 13.8 °C. For the same compound, the binding result in [2] is “weak”. Besides, the “ΔTm (°C) Duplex” value in [3] was 1.8 °C. Besides, the “ΔTm/°C, TTA45 stabilization by FRET (Table S3)” value in experiment [4] (20 µM compounds) stood at 16.09 ± 1.79 °C. Further, the “ΔTm/°C, stabilization of TTA45 by FRET (Table S2)” value in [4] (compounds 21-26 20 µM) came out at 16.1 °C. Further, in experiment [5], the fluorescence enhancement result is “less than 3 fold”. The IC50 is roughly 1 µM in [6]; 1.46 ± 0.16 µM in [7]; 1.4 ± 0.06 µM in [8]; 2.36 ± 0.48 µM in [9]; 2.14 ± 0.26 µM in experiment [10]. Also, in [11], the ΔTm was 6.6 °C.
